From US6852744B2, “Pyrrolidine derivatives and their use as chymase inhibitor” (Dainippon Pharmaceutical Co., Ltd., priority 2000, dated 2005) come the findings set out here.

Residue numbers refer to the chain shown, from its start. Structures can show the parent of a compound that is named as a salt.

In data set [1] the target is T1, monkey chymase (Macaca fascicularis, UniProt P56435).
T1 construct: chymase was extracted from homogenized monkey cheek pouch and stomach; from tissue; host or cells: monkey cheek pouch and stomach
T1 sequence (P56435 22-247): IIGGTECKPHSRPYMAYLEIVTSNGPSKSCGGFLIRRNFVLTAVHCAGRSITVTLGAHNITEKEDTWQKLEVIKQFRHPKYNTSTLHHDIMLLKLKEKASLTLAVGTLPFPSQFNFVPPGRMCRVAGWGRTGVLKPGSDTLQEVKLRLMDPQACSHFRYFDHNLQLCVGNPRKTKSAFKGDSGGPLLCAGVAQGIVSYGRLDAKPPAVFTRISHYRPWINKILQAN
In words: Monkey chymase inhibitory activity (in vitro, angiotensin I substrate). It is filed as biochemical. Particulars: for IC50: chymase purified from monkey cheek pouch and stomach, substrate angiotensin I, 37° C., read-out: Monkey Chymase Inhibition (IC50:nM). The protocol: (§1) The inhibitory activities of the compounds on monkey chymase and human chymase were tested in vitro. The test compounds are as shown by Compound Nos. in Tables 13 and 14.
Preparation of Monkey Chymase
Chymase was purified from monkey cheek pouch and stomach in the following manner.
Briefly, chymase was extracted from homogenized monkey cheek pouch and stomach with 0.01 mol/1000 ml sodium phosphate buffer, pH 7.4, containing 2 mol/1000 ml KCl and 0.1% Nonidet P-40 (Amresco Inc.). The solution containing chymase was applied to a heparin actigel column, and the chymase-rich fractions were collected.
(§2) Measurement of Chymase Inhibitory Activity (In Vitro Assay)
(§3) Briefly, the purified monkey or human chymase was diluted to an appropriate concentration with 0.01 mol/1000 ml sodium phosphate buffer, pH 7.4, containing 2 mol/1000 ml KCl and 0.1% Nonidet P-40 and used as enzyme solution. Angiotensin I (Peptide Institute Inc.) was diluted with water to 5 mg/ml and used as substrate solution. Test compounds were serially diluted with 10% DMSO. […] After pre-incubation of the mixture at 37° C., 20 μl of the substrate solution was added to the enzyme-test compound mixture and the new mixture was incubated at 37° C. Fifty μl of 30% trichloroacetic acid solution was finally added to stop the enzymatic reaction.
(§4) The amount of L-His-L-Leu was measured as angiotensin II produced by the enzymatic reaction. Briefly, 10 μl of the reaction mixture and 10 μl of 1% orthophthalaldehyde solution dissolved in methanol were mixed with 100 μl of 2 mol/1000 ml NaOH and kept at room temperature. The reaction was then stopped by adding 10 μl of 6 mol/1000 ml HCl.

Data set [2] addresses T2, human chymase (Homo sapiens, UniProt P23946).
T2 construct: made in house; host or cells: COS7 cells (transient transfection)
T2 sequence (P23946 22-247): T1 sequence (P56435 22-247) with S29F, V44A, K63E, Y159D, L201S, K221Q
In words: Human chymase inhibitory activity (in vitro, angiotensin I substrate). It is filed as biochemical. The settings on record: for IC50: recombinant human chymase (COS7 cells), substrate angiotensin I, 37° C., read-out: Human Chymase Inhibition (IC50:nM). How it is done:
as §1
Preparation of Human Chymase
Human chymase was produced in mammalian cells using a recombinant DNA technique.
Construction of a human prochymase expression plasmid was performed in the following manner. Briefly, single stranded cDNA was synthesized from human heart mRNA (Clontech Laboratories, Inc.). Polymerase chain reaction amplification was carried out using the cDNA as a template and appropriate pairs of primers. The primer sequences were determined based on the human preprochymase. The amplified product was cloned into the plasmid pUC18, and then recloned into the plasmid pBluescript II KS(+) (Stratagene). Finally, the DNA fragment carrying the entire protein-coding sequences of the human preprochymase was inserted to a transient expression vector by the usual method to yield the human prochymase expression plasmid.
Transfection of COS7 cells with the human prochymase expression plasmid was carried out using the FuGene™ 6 transfection reagent (Boehringer Mannheim). About 7 hours after exposure to DNA, the culture medium was changed to a serum-free one. The culture supernatant was collected after 2 days culture.
Human prochymase was purified from the culture supernatant using a heparin actigel column as described above in the preparation of monkey chymase.
In order to produce active chymase, the human prochymase was incubated with dipeptidylpeptidase I (Sigma). The resultant active human chymase was purified using a heparin actigel column as described above. The active human chymase was eluted with 0.01 mol/1000 ml sodium phosphate buffer pH 7.4 containing 2 mol/1000 ml NaCl.
as §2
as §3, with “The chymase inhibitory activities of compounds I-A of this invention were measured according to the following method. Briefly,” for “Briefly,”
as §4, with “HCl. Finally, the fluorescence induced by the reaction was measured using in a photometer with an excitation wavelength of 355 nm and an emission wavelength of 460 nm. Chymase inhibitory activities of test compounds were expressed as 50% inhibitory concentration (IC50).” for “HCl.”

Data set [3] is described as follows: in vivo. Particulars: male, ddy, mouse, po.
Method: Plasma levels of test compounds were measured in the following manner.
Briefly, test compounds were dissolved in DMSO to 100 mg/ml, and suspended with 0.5% tragacanth solution 1 mg/ml. Male ddy mice, weighing about 30 g, were orally administered the test compound solution. After one hour, blood was collected from the heart under anesthesia with Nembutal (Dainippon Pharmaceutical Co., Ltd.) and centrifuged to obtain plasma. The collected plasma (125 μl) was mixed with 10% DMSO (120 μl) and ethyl acetate (720 μl). After centrifugation, the ethyl acetate layer was collected and evaporated. The residue was dissolved and diluted serially as test samples with 10% DMSO. Chymase inhibitory activities of test samples were measured in the same manner as described in Experiment 1. In this chymase inhibitory assay of test samples, 0.1 mol/1000 ml sodium phosphate buffer, pH 7.4 contained 5 mmol/1000 ml ethylenediaminetetraacetic acid (EDTA) disodium salt, 0.77 mmol/1000 ml diisopropyl fluorophosphate (DFP) and 8 mmol/1000 ml dipyridyl. Plasma concentrations of test compounds were calculated from calibration curves.
The calibration curve was obtained in the following manner. Test compounds (0.06-60 ng) were added into the control plasma. The control plasma was treated in the same manner as for test samples. Finally, chymase inhibitory activities of the 10% DMSO-dissolved residues were measured and plotted against the amount of test compounds.

As to `Cc1noc(C)c1C(=O)N[C@H](C(=O)N1CCC[C@H]1C(=O)N[C@@H](Cc1ccc2ccccc2c1)C(=O)C(F)(F)F)C(C)C` [I-A-2, N-[(1S)-2-((2S)-2-{N-[(1S)-3,3,3-trifluoro-1-(2-naphthylmethyl)-2-oxopropyl]carbamoyl}pyrrolidinyl)-1-(methylethyl)-2-oxoethyl]-(3,5-dimethylisoxazol-4-yl)carboxamide], the IC50 in data set [1] was 54 nM; in data set [2] it was 83 nM. The compound further came in with a concentration at 1 h in data set [3] of 2700 ng/mL.
Regarding `CC(C)[C@H](NC(=O)c1ccc2c(c1)no[n+]2[O-])C(=O)N1CCC[C@H]1C(=O)NC(Cc1csc2ccccc12)C(=O)C(F)(F)F` (some centres unmarked) [I-A-52], the IC50 in data set [1] amounted to 31 nM; in data set [2] it was 57 nM.
In the case of `CC[C@@H](C)[C@H](NC(=O)c1c(C)noc1C)C(=O)N1CCC[C@H]1C(=O)N[C@@H](Cc1csc2ccccc12)C(=O)C(F)(F)F` [I-A-4, N-[1-((1R)-1-methylpropyl)(1S)-2-((2S)-2-{N-[(1S)-1-(benzo[b]thiophen-3-ylmethyl)-3,3,3-trifluoro-2-oxopropyl]carbamoyl}pyrrolidinyl)-2-oxoethyl](3,5-dimethylisoxazol-4-yl)carboxamide], the figures for the IC50 in data set [1] and in data set [2] were 12 nM and 57 nM, respectively. For the same compound, the concentration at 1 h in data set [3] stood at 940 ng/mL.
In the case of `Cc1nnsc1C(=O)N[C@H](C(=O)N1CCC[C@H]1C(=O)NC(Cc1ccccc1)C(=O)C(F)(F)F)C(C)C` (some centres unmarked) [I-A-96], the IC50 turned out to be 50 nM in data set [1] and 77 nM in data set [2].
With `Cc1nnsc1C(=O)N[C@H](C(=O)N1CCC[C@H]1C(=O)NC(Cc1cc2ccccc2s1)C(=O)C(F)(F)F)C(C)C` (some centres unmarked) [I-A-97], the results for the IC50 in data set [1] and in data set [2] were 59 nM and 75 nM, respectively.
Consider `CNC1CCN(C(=O)N[C@H](C(=O)N2CCC[C@H]2C(=O)N[C@@H](Cc2ccccc2)C(=O)C(F)(F)F)C(C)C)CC1` [Reference compound (A), [(2S)-1-((2S)-3-methyl-2-{[4-(methylamino)piperidyl]carbonylamino}butanoyl)pyrrolidin-2-yl]-N-[(1S)-3,3,3-trifluoro-2-oxo-1-benzylpropyl]carboxamide hydrochloride, reference compound], for which the IC50 in data set [1] is 1600 nM; in data set [2], 1200 nM. For the same compound, the “inhibitory activity on monkey chymase (in words)” value in data set [1] (summary of Table 13) is recorded as “very low chymase inhibitory activity”. In data set [2] (summary of Table 14), the “inhibitory activity on human chymase (in words)” value is on record as “very low chymase inhibitory activity”.
With `CC(C)[C@H](NC(=O)c1ccoc1)C(=O)N1CCC[C@H]1C(=O)NC(Cc1ccc2ccccc2c1)C(=O)C(F)(F)F` (some centres unmarked) [I-A-63], the IC50 in data set [1] was 150 nM; in data set [2], 92 nM.
For the compound `CC(C)[C@H](NC(=O)c1ccc2c(c1)no[n+]2[O-])C(=O)N1CCC[C@H]1C(=O)NC(Cc1ccc2ccccc2c1)C(=O)C(F)(F)F` (some centres unmarked) [I-A-53], the IC50 in data set [1] is 31 nM; in data set [2] it was 69 nM.
Taken in the same sequence, the figures for `CC(C)[C@H](NC(=O)c1ccc2c(c1)no[n+]2[O-])C(=O)N1CCC[C@H]1C(=O)NC(Cc1ccccc1)C(=O)C(F)(F)F` (some centres unmarked) [I-A-54] were 42 nM and 90 nM.
For the compound `CC(C)[C@H](NC(=O)c1ccc2nonc2c1)C(=O)N1CCC[C@H]1C(=O)NC(Cc1cc2ccccc2s1)C(=O)C(F)(F)F` (some centres unmarked) [I-A-95], the IC50 in data set [1] worked out at 47 nM; in data set [2], 95 nM.
Turning to `Cc1noc(C)c1C(=O)N[C@@H](C)C(=O)N1CCC[C@H]1C(=O)N[C@@H](Cc1csc2ccccc12)C(=O)C(F)(F)F` [I-A-5, N-[(1S)-2-((2S)-2-{N-[(1S)-1-(benzo[b]thiophen-3-ylmethyl)-3,3,3-trifluoro-2-oxopropyl]carbamoyl}pyrrolidinyl)-1-methyl-2-oxoethyl](3,5-dimethylisoxazol-4-yl)carboxamide], the IC50 amounted to 16 nM in data set [1] and 83 nM in data set [2]. In addition, the concentration at 1 h in data set [3] stood at 630 ng/mL.
Turning to `CC(C)[C@H](NC(=O)c1ccoc1)C(=O)N1CCC[C@H]1C(=O)NC(Cc1csc2ccccc12)C(=O)C(F)(F)F` (some centres unmarked) [I-A-64], the IC50 in data set [1] was determined as 73 nM; in data set [2] it was 96 nM.
